What was measured:
[1] = test system: xylene-induced ear swelling in mice; test: Xylene-induced ear swelling in mice; assay type: in vivo, Kunming mice; conditions: 200 mg/kg
Experimental: 80 Kunming mice were divided into 8 groups with 10 mice for each group and numbered. A physiological saline group was used as a blank control group, an aspirin group (200 mg/kg) was used as a positive control group, and fusion proteins I and II at high, medium and low doses (128, 32, 8 mg/kg) was used as the experimental groups. Mice were administered once by injection every 5 days. The blank control group was given an equal volume of physiological saline. On the fifth day after the administration, 0.05 mL of xylene was applied to both sides of the right ears of the mice to induce inflammation, and the left ears were not applied and were normal ears. After 2 h, the mice were sacrificed by dislocation, and the ears were cut along the auricle. Ear pieces were taken with a puncher and weighed, and the swelling degree and swelling rate were calculated. Swelling degree=right ear piece weight-left ear piece weight, swelling rate=(swelling degree/left ear piece weight)×100%.

[2] = test system: adjuvant arthritis in rat; test: Chronic inflammation of adjuvant arthritis in rat; assay type: in vivo, SD rats; conditions: 1 mg/kg once every 5 days for 15 days
Experimental: 80 SPF SD rats were randomly divided into 8 groups. Rats in each group were lightly anesthetized with ether. Then, 0.1 mL of complete Freund's adjuvant containing inactivated Mycobacterium tuberculosis was injected subcutaneously into the left hind foot of the rats. Primary arthritis occurred in the left hind foot of the rat, and at about 13 days post-modeling, secondary arthritis occurred in the right hind foot. A blank control group was injected with an equal volume of physiological saline. The drug was administered 13 days after modeling.
Using a foot volume measuring method, a marker was made with a fat-soluble marker at the left and right posterior ankle joints of each rat, and the left and right hind feet of the animal were respectively immersed in the volume measuring device. The immersion depth was bounded by the marker, and the reading value at the scale pipette of the device was the initial volume of the animal's left and right hind feet.
The day of modeling was considered as the 0th day and recorded as d0. The volume of the left hind foot (modeling foot) was measured from the first day dl after modeling every 2 days. When the swelling occurred (i.e., secondary arthritis occurred) at the contralateral non-inflammatory foot (right hind foot), the administration was started. The volume of the left and right hind feet was measured once every 2 days, and the degree of primary and secondary toe swelling was determined, which was calculated as follows: Primary toe swelling (mL)=left hind foot volume on the day of measurement−initial volume of left hind foot Secondary toe swelling (mL)=right hind foot volume on the day of measurement−initial volume of right hind foot
Systemic score: the systemic score was taken every 2 days after the onset of secondary inflammation.
Hind foot: no swelling=0 score, one hind foot swelling=1 score, two hind feet swelling=2 scores;
Forefoot: no swelling=0 score, one forefoot swelling=1 score, two forefeet swelling=2 scores;
Ears: no redness and nodules=0 score, redness or nodules in one ear=1 score, redness and nodules in both ears=2 scores;
Nose: no swelling=0 score, obvious swelling=1 score;
Tail: no nodules=0 score, nodules=1 score; full score was 8 scores.
Arthritis index score: the arthritis index score was performed every 2 days after the onset of secondary inflammation.
The initial body weight of each group of rats was weighed before modeling. The body weight was measured every 2 days from dl after modeling, from which the initial body weight was subtracted to obtain the weight gain of each group of rats.

[3] = test system: Human umbilical vein endothelial cells (HUVECs); test: Three-dimensional transwell assay, migration of HUVEC; assay type: cell-based; conditions: 8.0 · 10^−6 μg/mL, 24 h
Experimental: (1) 10 mg/mL Matrigel (a basement membrane matrix secreted by Engelbreth-Holm-Swarm (EHS) mouse sarcoma cells) diluted with a DMEM medium (Dulbecco's Modified Eagle Medium) at a ratio of 1:4, coated on a transwell chamber membrane, and air-dried at room temperature;
(2) HUVEC cells cultured to logarithmic phase were digested with 0.2% EDTA, collected, washed twice with PBS, followed by resuspended in an endothelial cell culture liquid containing 0.1% BSA, and counted under a microscope, and the cell concentration was adjusted to 1×10^5 cells/mL;
(3) Test solutions for each group were formulated and diluted to 100 μL with a cell culture liquid containing 0.1% BSA;
(4) The cells were inoculated into a transwell chamber, 100 μL per well, and test solutions for each group were added to the chamber. To a 24-well plate, 0.6 mL of endothelial cell culture liquid containing 5% fetal bovine serum and 1×ECGS was added to stimulate cell migration, and incubated at 5% CO2 at 37° C. for 24 h;
(5) The culture liquid in the well was discarded. […] The migration inhibition (MI) was calculated according to the formula: […]
The test was repeated 3 times independently. The results obtained from the test were calculated as mean±SD, and statistical t-test was performed. […]

[4] = test system: colon cancer cell HCT-116; test: MTT assay, proliferation of colon cancer cell HCT-116; assay type: cell-based; conditions: 5 μg/mL, 48 h
Experimental: (§1) The MTT assay was used to detect the inhibitory effect of the integrin blocker fusion protein obtained in Example 1 on the proliferation of various tumor cells, including melanoma cell B16F10, gastric cancer cell MGC-803, lung cancer cell A549, liver cancer cell Hep-G2, breast cancer cell MDA-MB-231, colon cancer cell HCT-116, human glioma U87, and cervical cancer cell Hela.
(§2) The tumor cells were cultured in a 5% CO2 incubator at 37° C. to a density of 90% or more, and collected by trypsinization. The cells were resuspended in the culture liquid and counted under a microscope. The cell concentration was adjusted to 3.0×10^4 cells/mL. The cell suspension was inoculated into a 96-well plate, 100 μL per well, and cultured overnight in a 5% CO2 incubator at 37° C. The fusion proteins I, II, and the positive drug Taxol were diluted with the culture liquid to respective predetermined concentrations. After the cells were fully adhered, each dilution was added to a 96-well plate, 100 μL per well, respectively. […] The absorbance was measured at 570 nm with a microplate reader with a reference wavelength of 630 nm, and the proliferation inhibition (PI) was calculated. […]
(§3) The test was repeated 5 times independently. The results obtained from the test were calculated as mean±SD, and statistical t-test was performed. […]

human glioma U87 = test: MTT assay, proliferation of human glioma U87; assay type: cell-based; conditions: 5 μg/mL, 48 h
Experimental: as §1, §2, §3

[5] = test system: cervical cancer cell Hela; test: MTT assay, proliferation of cervical cancer cell Hela; assay type: cell-based; conditions: 5 μg/mL, 48 h
Experimental: as §1, §2, §3

liver cancer cell Hep-G2 = test: MTT assay, proliferation of liver cancer cell Hep-G2; assay type: cell-based; conditions: 5 μg/mL, 48 h
Experimental: as §1, §2, §3

[6] = test system: breast cancer cell MDA-MB-231; test: MTT assay, proliferation of breast cancer cell MDA-MB-231; assay type: cell-based; conditions: 5 μg/mL, 48 h
Experimental: as §1, §2, §3

[7] = test system: gastric cancer cell MGC-803; test: MTT assay, proliferation of gastric cancer cell MGC-803; assay type: cell-based; conditions: 5 μg/mL, 48 h
Experimental: as §1, §2, §3

lung cancer cell A549 = test: MTT assay, proliferation of lung cancer cell A549; assay type: cell-based; conditions: 5 μg/mL, 48 h
Experimental: as §1, §2, §3

melanoma cell B16F10 = test: MTT assay, proliferation of melanoma cell B16F10; assay type: cell-based; conditions: 5 μg/mL, 48 h
Experimental: as §1, §2, §3

Structure (SMILES): CC(=O)Oc1ccccc1C(=O)O [Aspirin, aspirin, reference compound]
- PI (%) ([1]; ear swelling, mice): 53.15%
- Swelling degree ([1]; mouse ear, 2 h after xylene): 3.12 ± 0.61 mg

Structure (SMILES): CN(Cc1cnc2nc(N)nc(N)c2n1)c1ccc(C(=O)N[C@@H](CCC(=O)O)C(=O)O)cc1 [Methotrexate, methotrexate, reference compound]
- Clinical score Arthritis index [2]: 2.96 ± 0.57
- Clinical score Whole body [2]: 1.34 ± 0.19
- Foot swelling degree (mL) Left [2]: 1.22 ± 0.21 mL
- Foot swelling degree (mL) Right [2]: 1.25 ± 0.13 mL
- Weight gain [2]: 47.35 ± 17.40 g

Structure (SMILES): CCN(CC)CCNC(=O)c1c(C)[nH]c(/C=C2\C(=O)Nc3ccc(F)cc32)c1C [Sunitinib, reference compound]
- MI (%) [3]: 82.31%
- Migration cell number [3]: 441.0 ± 150.58

Structure (SMILES): CC(=O)O[C@H]1C(=O)[C@@]2(C)[C@H]([C@H](OC(=O)c3ccccc3)[C@]3(O)C[C@H](OC(=O)[C@H](O)[C@@H](NC(=O)c4ccccc4)c4ccccc4)C(C)=C1C3(C)C)[C@]1(OC(C)=O)CO[C@@H]1C[C@@H]2O [Taxol, reference compound]
- A570 nm/A630 nm [4]: 0.2098 ± 0.0164
- PI (%) [4]: 69.16%
- A570 nm/A630 nm (human glioma U87): 0.1825 ± 0.0163
- PI (%) (human glioma U87): 76.38%
- A570 nm/A630 nm [5]: 0.2078 ± 0.0162
- PI (%) [5]: 83.75%
- A570 nm/A630 nm (liver cancer cell Hep-G2): 0.4257 ± 0.0099
- PI (%) (liver cancer cell Hep-G2): 58.55%
- A570 nm/A630 nm [6]: 0.4071 ± 0.0301
- PI (%) [6]: 52.83%
- A570 nm/A630 nm [7]: 0.4146 ± 0.0186
- PI (%) [7]: 56.60%
- A570 nm/A630 nm (lung cancer cell A549): 0.3226 ± 0.0309
- PI (%) (lung cancer cell A549): 52.17%
- A570 nm/A630 nm (melanoma cell B16F10): 0.6011 ± 0.0144
- PI (%) (melanoma cell B16F10): 52.13%

Reference: patent US11542311B2, “Fusion protein, preparation method therefor and application thereof in preparing ophthalmic disease treatment, anti-inflammation and anti-tumor medicament” (JIANGSU RONGTAI BIOTECH CO., LTD., priority 2017, dated 2023)
